Laboratory results published in US11638713B2, “Patentiflorin A analogs as antiviral agents” (priority 2019, dated 2023).

How the values were obtained:
SARS-CoV-2 = test: microbe, parasite or virus in culture; type: cell-based; details: Severe acute respiratory syndrome coronavirus 2, HepG2, read-out: EC50 against SARS-CoV-2
in vitro = details: human
HIV = test: microbe, parasite or virus in culture; type: cell-based; details: Human immunodeficiency virus 1, A549
EBOV (Ebola virus) = test: microbe, parasite or virus in culture; type: cell-based; details: Zaire ebolavirus; for EC50: A549, read-out: EC50 against EBOV
H5N1 virus = test: microbe, parasite or virus in culture; type: cell-based, H5N1 influenza virus; details: Influenza A virus; for EC50: H5N1, A549, read-out: EC50 against H5N1 virus
A549 cells = test: cells; details: Homo sapiens, A549, read-out: % Inhibition against A549 cells
[1] = test system: VSV (vesicular stomatitis virus); test: microbe, parasite or virus in culture; type: cell-based; details: for EC50: A549, read-out: EC50 against VSV
[2] = CC50 against the host cell line A549

Structure (SMILES) | CC50 (in vitro; CC50 (nM)) [nM] | EC50 (HIV) [nM] | CC50 (in vitro; [2]) [nM] | EC50 (EBOV (Ebola virus)) [nM] | EC50 [1] [nM] | EC50 (H5N1 virus) [nM] | further results
COc1cc2c(O)c3c(c(-c4ccc5c(c4)OCO5)c2cc1OC)C(=O)OC3 [Compound 5, diphyllin] | 3610 | 37.1 | – | – | – | – | EC50 (SARS-CoV-2): 150 nM
COc1cc2c(N=C(c3ccccc3)c3ccccc3)c3c(c(-c4ccc5c(c4)OCO5)c2cc1OC)C(=O)OC3 [Compound 19p] | > 9200 | 249 | – | – | – | – | inhibition at 1 µg/mL (EBOV (Ebola virus); A549, 1000 ng/mL, read-out: % Inhibition against EBOV): 58.1%; inhibition at 5 µg/mL (EBOV (Ebola virus); A549, 5000 ng/mL, read-out: % Inhibition against EBOV): 89.4%; inhibition at 1 µg/mL (H5N1 virus; H5N1, A549, 1000 ng/mL, read-out: % Inhibition against H5N1 virus): 82.1%; inhibition at 5 µg/mL (H5N1 virus; H5N1, A549, 5000 ng/mL, read-out: % Inhibition against H5N1 virus): 96.5%; inhibition at 1 µg/mL (A549 cells): -13%; inhibition at 5 µg/mL (A549 cells): 17.2%
COc1cc2c(OC3O[C@H](CO)[C@@H](O)[C@H](O)[C@H]3O)c3c(c(-c4ccc5c(c4)OCO5)c2cc1OC)C(=O)OC3 (stereo partly drawn) [Compound 26f, 7-O-β-D-glucopyranosyldiphyllin] | > 9220 | – | 8650 | 516 | 1040 | 371 | inhibition at 0.1 µg/mL (EBOV (Ebola virus); A549, 100 ng/mL, read-out: % Inhibition against EBOV): 82.7%; inhibition at 0.5 µg/mL (EBOV (Ebola virus); A549, 500 ng/mL, read-out: % Inhibition against EBOV): 89.1%; inhibition at 0.1 µg/mL ([1]; A549, 100 ng/mL, read-out: % Inhibition against VSV): 47.2%; inhibition at 0.5 µg/mL ([1]; A549, 500 ng/mL, read-out: % Inhibition against VSV): 70.8%; inhibition at 0.1 µg/mL (H5N1 virus; H5N1, A549, 100 ng/mL, read-out: % Inhibition against H5N1 virus): 62.4%; inhibition at 0.5 µg/mL (H5N1 virus; H5N1, A549, 500 ng/mL, read-out: % Inhibition against H5N1 virus): 87.2%; inhibition at 0.1 µg/mL (A549 cells): -3.84%; inhibition at 0.5 µg/mL (A549 cells): 18.2%
COc1cc2c(OC3O[C@H](CO)[C@H](O)[C@H](O)[C@H]3O)c3c(c(-c4ccc5c(c4)OCO5)c2cc1OC)C(=O)OC3 (stereo partly drawn) [Compound 26g, 7-O-β-D-galactopyranosyldiphyllin] | 7770 | 1400 | 4130 | 123 | 210 | 63.6 | –
COc1cc2c(OC3O[C@H](C)[C@@H](OC(C)=O)[C@H](O)[C@H]3OC(C)=O)c3c(c(-c4ccc5c(c4)OCO5)c2cc1OC)C(=O)OC3 (stereo partly drawn) [Compound 27be, 2″,4″-Diacetyl-7-O-β-D-patentiflorin A] | 1670 | 1.96 | – | – | – | – | –
COc1cc2c(OC3O[C@H](C)[C@@H](O)[C@H](OC(C)=O)[C@H]3OC(C)=O)c3c(c(-c4ccc5c(c4)OCO5)c2cc1OC)C(=O)OC3 (stereo partly drawn) [Compound 27bf, 2″,3″-Diacetyl-7-O-β-D-patentiflorin A] | 308 | 1.17 | – | – | – | – | –
C=CCOC(=O)O[C@H]1C(Oc2c3c(c(-c4ccc5c(c4)OCO5)c4cc(OC)c(OC)cc24)C(=O)OC3)OC[C@@H](O)[C@@H]1OC(C)=O (stereo partly drawn) [Compound 28ab2, 2″-O-allyl oxycarbonyl-3″-acetyl-7-O-β-D-xylosyldiphyllin] | 386 | 2.3 | 108 | 16.3 | 4.98 | 0.23 | –
C=CCOC(=O)O[C@@H]1COC(Oc2c3c(c(-c4ccc5c(c4)OCO5)c4cc(OC)c(OC)cc24)C(=O)OC3)[C@H](OC(=O)OCC=C)[C@H]1OC(C)=O (stereo partly drawn) [Compound 28ab3, 2″,4″-O-diallyl oxycarbonyl-3″-acetyl-7-O-β-D-xylosyldiphyllin] | 386 | 22.9 | 6.14 | 0.98 | 0.85 | 1.16 | –
C=CCOC(=O)O[C@@H]1COC(Oc2c3c(c(-c4ccc5c(c4)OCO5)c4cc(OC)c(OC)cc24)C(=O)OC3)[C@H](OC(=O)OCC=C)[C@H]1O (stereo partly drawn) [Compound 29a, 2″,4″-O-diallyl oxycarbonyl-7-O-β-D-xylosyldiphyllin] | 438 | – | 122 | 10.6 | 10.6 | 5.57 | inhibition at 0.05 µg/mL (H5N1 virus; H5N1, A549, 50 ng/mL, read-out: % Inhibition against H5N1 virus): 59.4%; inhibition at 0.25 µg/mL (H5N1 virus; H5N1, A549, 250 ng/mL, read-out: % Inhibition against H5N1 virus): 97.3%
